Consider four compounds from patent US11325920B2, “Antibacterial compounds, compositions thereof, and methods using same” (The Rockefeller University, priority 2018, dated 2022).

Assay [1] deals with Enterococcus faecium Com15. Briefly: MIC assay, Enterococcus faecium Com15.
Method: (§1) Minimum Inhibitory Concentration (MIC) and Minimal Bactericidal Concentration (MBC) Assays. […] Specifically, overnight cultures in an appropriate broth (e.g., Luria Bertani, Mueller-Hinton II) were diluted to 5×10^5 cfu/mL and used to fill wells of a 96-well plate. […] The plates were incubated on a shaker (200 rpm) at 35-37° C. for 18-20 hours, and then the optical density was measured at 595 nm on a microplate reader.
Assay [2] relates to Staphylococcus aureus ATCC12600. Briefly: MIC assay, wild type S. aureus ATCC 12600. The format is cell-based.
For assay [3], the system named is Acinetobacter baumannii ATCC17978. Put plainly: MIC assay, Acinetobacter baumannii ATCC17978.
Method: (§2) Minimum Inhibitory Concentration (MIC) and Minimal Bactericidal Concentration (MBC) Assays. […] Specifically, overnight cultures in an appropriate broth (e.g., Luria Bertani, Mueller-Hinton II) were diluted to 5×10^5 cfu/mL and used to fill wells of a 96-well plate. […] The plates were incubated on a shaker (200 rpm) at 35-37° C. for 18-20 hours, and then the optical density was measured at 595 nm on a microplate reader. Samples of each well without visible growth were diluted and spread on LB agar petri dishes. The petri dishes were incubated overnight at 37° C., and the colonies were counted.
The test system of assay [4] is Staphylococcus epidermidis RP62A. Put plainly: MIC assay, Staphylococcus epidermidis RP62A.
Method: as §1
Assay [5] relates to Staphylococcus aureus ATCC BAA-1721. Put plainly: MIC assay, S. aureus ATCC BAA-1721.
Method: as §1
The subject of assay [6] is Salmonella enterica IR715. Briefly: MIC assay, Salmonella enterica IR715.
Method: as §2
Assay [7] relates to Staphylococcus aureus USA100. Put plainly: MIC assay, S. aureus USA100.
Method: as §1
Assay [8] relates to Listeria monocytogenes ATCC15313. Briefly: MIC assay, Listeria monocytogenes ATCC15313.
Method: as §1
Assay [9] has as its system Staphylococcus aureus ATCC BAA-42. Put plainly: MIC assay, S. aureus ATCC BAA-42.
Method: as §1
The subject of assay [10] is S. aureus ATCC 12600 D471Y mutant strain.
Assay [11] concerns Staphylococcus aureus NCTC 8325 pT181. Briefly: MIC assay, S. aureus NCTC 8325 pT181.
Method: as §1
Assay [12] relates to Pseudomonas aeruginosa PAO1. Briefly: MIC assay, Pseudomonas aeruginosa PAO1.
Method: as §1
The test system of assay [13] is rifamycin resistant S. aureus strains carrying RNAP mutations. Briefly: Activity against rifamycin resistant S. aureus strains carrying RNAP mutations. As to conditions: FIG. 6D.
Assay [14] deals with S. aureus ATCC 12600 D471Y mutant strain. Briefly: microbe, parasite or virus in culture. The settings on record: Staphylococcus aureus, ATCC12600.
For assay [15], the system named is Staphylococcus aureus USA200. Briefly: MIC assay, S. aureus USA200.
Method: as §1
The subject of assay [16] is Staphylococcus aureus USA800. Put plainly: MIC assay, S. aureus USA800.
Method: as §1
Assay [17] deals with Proteus mirabilis ATCC29906. Briefly: MIC assay, Proteus mirabilis ATCC29906.
Method: as §2
The subject of a further assay is M. tuberculosis H37Rv. Briefly: Antibiotic assay against Mycobacterium tuberculosis (IC90). It counts as cell-based. The settings on record: for MIC: read-out: IC90 (footnote a; column head MIC).
Assay [18] concerns the target T1, S447L mutant DNA-dependent RNA polymerase from Mycobacterium smegmatis (Mycolicibacterium smegmatis, UniProt P60281, S447L).
T1 construct: made in house
It counts as biochemical. The settings on record: S447L M. smegmatis RNAP mutant.

[19] abbreviates: Staphylococcus aureus, ATCCBAA1721.
[20] abbreviates: Staphylococcus aureus, ATCCBAA42.
Where [21] appears, read: Staphylococcus aureus, NCTC8325.
The mark [22] stands for this setting: Mycobacterium tuberculosis H37Rv, Table 5.
Setting [23] is: Mycobacterium tuberculosis, H37RV.

The structures appear in SMILES notation. In brackets after ≈: the same amount, converted by molar mass. Like-named read-outs stand apart in the source and are kept apart here.

For the compound `CC(=O)OC1C(C)C(OC2CC3OCOC3C(C)O2)/C=C/OC2(C)CC(O)c3c(c(C)c(O)c4c3C(=O)C=C(NC(=O)/C(C)=C\C=C\C(C(C)OC(=O)C(C)(C)CC(=O)O)C(O)C(C)C(O)C1C)C4=O)O2` (stereo not drawn) [Kang V1, kanglemycin V1], the MIC in assay [1] (Enterococcus faecium, COM15) is 32 µg/mL (≈ 32.1 µM); in assay [2], 0.069 µg/mL (≈ 0.0691 µM); in [3], over 64 µg/mL; in assay [4], 0.031 µg/mL (≈ 0.0311 µM); in assay [5] (setting [19]) it was 0.063 µg/mL (≈ 0.0631 µM); in assay [6] it was over 64 µg/mL. The MIC was 0.13 µg/mL (≈ 0.13 µM) in assay [7]; 1 µg/mL (≈ 1 µM) in assay [8]; 0.13 µg/mL (≈ 0.13 µM) in assay [9] (setting [20]); 0.063 µg/mL (≈ 0.0631 µM) in assay [11] (setting [21]); 64 µg/mL (≈ 64.1 µM) in [12]; 0.069 µg/mL (≈ 0.0691 µM) in assay [14]. Besides, the MIC in [15] is 0.25 µg/mL (≈ 0.25 µM); in assay [16], 0.063 µg/mL (≈ 0.0631 µM); in [17], over 64 µg/mL; in the assay on M. tuberculosis H37Rv (setting [22]), 3.1 µg/mL (≈ 3.11 µM). Further, the “fold lower MIC than rifampicin” value in assay [10] is listed as about 80 fold. Moreover, the “activity against rifamycin resistant S. aureus strains” value in [13] is recorded as “active”. In addition, in the assay with M. tuberculosis H37Rv (setting [23]), the IC90 (in general, the point of the concentration-response curve where the effect stands at 90%) turned out to be 3.12 µM.

`CO[C@H]1/C=C/O[C@@]2(C)Oc3c(C)c(O)c4c(O)c(c(/C=N/N5CCN(C)CC5)c(O)c4c3C2=O)NC(=O)/C(C)=C\C=C\[C@H](C)[C@H](O)[C@@H](C)[C@@H](O)[C@@H](C)[C@H](OC(C)=O)[C@@H]1C` [Rifampicin, rifampicin, reference compound]: the MIC in assay [1] (Enterococcus faecium, COM15) amounted to 4 µg/mL (≈ 4.86 µM); in [2] (read-out: MIC) it was 0.023 µg/mL (≈ 0.0279 µM); in assay [4] it was 0.016 µg/mL (≈ 0.0194 µM); in assay [5] (setting [19]) it was 0.0078 µg/mL (≈ 0.00948 µM); in [7], 0.0078 µg/mL (≈ 0.00948 µM); in assay [8], 0.031 µg/mL (≈ 0.0377 µM). For the same compound, the MIC in assay [9] (setting [20]) is 0.016 µg/mL (≈ 0.0194 µM); in [11] (setting [21]), 0.031 µg/mL (≈ 0.0377 µM); in assay [12], 32 µg/mL (≈ 38.9 µM); in assay [14] it was 5.6 µg/mL (≈ 6.8 µM); in [15], 0.0078 µg/mL (≈ 0.00948 µM); in [16], 0.016 µg/mL (≈ 0.0194 µM). Besides, the MIC in the assay on M. tuberculosis H37Rv (setting [22]) stood at 0.2 µg/mL (≈ 0.243 µM).

Take `CC(=O)O[C@@H]1[C@@H](C)[C@@H](O)[C@@H](C)[C@@H](O)[C@@H]([C@@H](C)OC(=O)C(C)(C)CC(=O)O)/C=C/C=C(\C)C(=O)NC2=CC(=O)c3c(c(O)c(C)c4c3C(=O)[C@](C)(O/C=C/[C@H](O[C@@H]3C[C@@H]5OCO[C@@H]5[C@H](C)O3)[C@H]1C)O4)C2=O` [Kang A, kanglemycin A, reference compound]: the MIC in assay [1] (Enterococcus faecium Com15) is 64 µg/mL (≈ 65.2 µM); in assay [2] it was 0.62 µg/mL (≈ 0.631 µM); in [3], over 64 µg/mL; in [4] it was 0.25 µg/mL (≈ 0.255 µM); in assay [5] (Staphylococcus aureus ATCC BAA-1721) it was 2.0 µg/mL (≈ 2.04 µM); in [6], over 64 µg/mL. Besides, the MIC in assay [7] was 1.0 µg/mL (≈ 1.02 µM); in assay [8] it was 2.0 µg/mL (≈ 2.04 µM); in [9] (Staphylococcus aureus ATCC BAA-42), 1.0 µg/mL (≈ 1.02 µM); in assay [11] (Staphylococcus aureus NCTC 8325 pT181), 0.25 µg/mL (≈ 0.255 µM); in assay [12] it was 64 µg/mL (≈ 65.2 µM); in assay [15], 2.0 µg/mL (≈ 2.04 µM). Further, the MIC was 0.5 µg/mL (≈ 0.509 µM) in [16] and over 64 µg/mL in assay [17]. The IC90 with M. tuberculosis H37Rv (M. tuberculosis H37Rv, read-out: IC90) amounted to 12.5 µM. The “IC90 (footnote a; column head MIC)” value in the assay on M. tuberculosis H37Rv (setting [22]) was found to be 13 µg/mL (≈ 13.2 µM).

As for `CC(=O)OC1C(C)C(OC2CC3OCOC3C(C)O2)/C=C/OC2(C)OC3=C(C)C(=O)c4c(O)c(cc5c4C3=C2OCO5)NC(=O)/C(C)=C\C=C\C(C(C)OC(=O)C(C)(C)CC(=O)O)C(O)C(C)C(O)C1C` (stereo not drawn) [Kang V2, kanglemycin V2], the MIC in assay [1] (Enterococcus faecium, COM15) is 64 µg/mL (≈ 64.3 µM); in assay [2], 0.62 µg/mL (≈ 0.622 µM); in [3] it was over 64 µg/mL; in [4], 0.25 µg/mL (≈ 0.251 µM); in assay [5] (setting [19]), 0.25 µg/mL (≈ 0.251 µM); in assay [6], over 64 µg/mL. The MIC in assay [7] is 1 µg/mL (≈ 1 µM); in assay [8], 1 µg/mL (≈ 1 µM); in [9] (setting [20]), 1 µg/mL (≈ 1 µM); in [11] (setting [21]), 0.25 µg/mL (≈ 0.251 µM); in assay [12], 64 µg/mL (≈ 64.3 µM); in assay [15], 2 µg/mL (≈ 2.01 µM). Further, the MIC in [16] is 1 µg/mL (≈ 1 µM); in assay [17], over 64 µg/mL; in the assay on M. tuberculosis H37Rv (setting [22]), 1.6 µg/mL (≈ 1.61 µM). For the same compound, in assay [13], the “activity against rifamycin resistant S. aureus strains” value is on record as “active”. In assay [18], the “in vitro activity against RNAP (run-off transcription)” value is given as “highest potency”. The IC90 in the assay on M. tuberculosis H37Rv (setting [23]) was 1.56 µM.
